According to US9518130B2, “Use of ERBB3 inhibitors in the treatment of triple negative and basal-like breast cancers” (Merrimack Pharmaceuticals, Inc., priority 2010, dated 2016):
Values joined by “and” are separate entries in the source; they are usually repeats but may differ in a detail not shown here. Identical values can stand only once.

What was measured:
[1] = test system: MDA-MB-231 triple negative breast cancer xenograft model; experiment: Inhibition of tumor growth in vivo by combination treatment with MM-121 and paclitaxel (Example 4); design: species or system Balb/c nude mice; conditions: for mean tumor volumes: MM121 150 μg/mouse Q3D ip, paclitaxel 5 mg/kg; for effect on tumor growth (in words): sub-optimal doses, FIG. 3
Excerpt: Treatment is continued for 4 weeks. […] Results:

[2] = test system: MDA-MB-231 triple negative breast cancer xenograft model; experiment: MM-121 combination with targeted and chemotherapies in vivo (Example 5); conditions: MM121 300 ug/mouse Q3D, erlotinib 50 mg/kg PO, cetuximab 2 mg/kg Q3D, paclitaxel 10 mg/kg
Protocol: Balb/c nude mice (female, 4-5 weeks old from Charles River lab) are implanted orthotopically with 10×10^6 cells in mammary pad. Tumors are allowed to reach average of 150 mm^3 in size before randomization into 9 groups of 8 mice, containing mice with a similar size distribution of tumors. […] Treatment is continued for 4 weeks. Tumors are measured twice weekly and tumor volume is calculated as p/6×length×width, where the width is the shorter measurement.

[3] = test system: triple negative human mammary carcinoma xenograft MAXF449; experiment: Anti-tumor efficacy of MM-121 monotherapy in MAXF449 xenograft; assay type: in vivo, NMRI nude mice; conditions: MM-121 600 μg per mouse IP every three days
Protocol: An analysis of the anti-tumor efficacy and tolerability of MM-121 treatment of tumor-bearing mice is carried out using triple negative human mammary carcinoma xenograft MAXF449 (ONCOTEST GmbH, Frieburg, Germany) in NMRI nude mice. MAXF449 is a Human tumor explant (histologically described upon explant as solid invasive ductal, and poorly defined) established via subcutaneous injection in serial passages in nude mice. The MAXF449 cells used in these experiments have been passaged 22 times. NMRI nude mice are obtained from Taconic farms, Charles River Laboratories International, or Harlan Laboratories. […]
To investigate anti-tumor efficacy in monotherapy, MM-121 or vehicle control (100 μL) is given to tumor-bearing mice at 600 μg per mouse (MM-121 as a 6 mg/mL solution in PBS) by IP injection every three days. […] Efficacy is determined by comparing tumor growth between the antibody-treated mice and the vehicle control mice and is expressed as the experimental to control ratio of median relative tumor volumes (T/C value). […]
Mice are randomized and therapy begins when a sufficient number of individual tumors have grown to a volume of approximately 200 mm3. Tumors are measured (L×W) by digital caliper measurement and the tumor volume is calculated using the formula Pi/6 (W2×L). […]

[4] = test system: MDA-MB-231 human triple negative breast cancer cells; experiment: MM-121 effects on MDA-MB-231 xenograft (subcutaneous flank or mammary fat pad); assay type: in vivo, Balb/c nude mice; conditions: MM-121 600 ug per mouse IP every 3 days; FIG. 2
Protocol: Balb/c nude mice are injected under general anesthesia with 10^7 MDA-MB-231 human triple negative breast cancer cells (ATCC) either subcutaneously in the flank or into the mammary fat pad. Mice with established tumors (i.e., after 7-10 days of tumor growth following injection of cells) are then treated IP with either PBS or MM-121 every 3 days with 600 ug MM-121 per mouse as described in Example 1. Tumor volume is measured twice a week as described in Example 1.

[5] = 1st time point column (day head not given; FIG. 3 starts at 28 days following injection)
[6] = 2nd time point column (day head not given)
[7] = 3rd time point column (day head not given)
[8] = 4th time point column (day head not given)
[9] = 5th time point column (day head not given)
[10] = 6th time point column (day head not given)

## CC(=O)O[C@H]1C(=O)[C@@]2(C)[C@H]([C@H](OC(=O)c3ccccc3)[C@]3(O)C[C@H](OC(=O)[C@H](O)[C@@H](NC(=O)c4ccccc4)c4ccccc4)C(C)=C1C3(C)C)[C@]1(OC(C)=O)CO[C@@H]1C[C@@H]2O [paclitaxel]
[1]; [5]
  mean tumor volumes: 97.9 mm^3
[1]; [6]
  mean tumor volumes: 113.5 mm^3
[1]; [7]
  mean tumor volumes: 144.6 mm^3
[1]; [8]
  mean tumor volumes: 166.2 mm^3
[1]; [9]
  mean tumor volumes: 178.8 mm^3
[1]; [10]
  mean tumor volumes: 202.2 mm^3
[1]
  effect on tumor growth (in words): inhibited tumor growth
[2]; Day 28
  mean tumor volumes: 155.2 mm^3
[2]; Day 32
  mean tumor volumes: 167.0 mm^3
[2]; Day 36
  mean tumor volumes: 182.4 mm^3
[2]; Day 39
  mean tumor volumes: 216.6 mm^3
[2]; Day 43
  mean tumor volumes: 228.1 mm^3
[2]; Day 46
  mean tumor volumes: 247.0 mm^3
[2]; Day 49
  mean tumor volumes: 292.6 mm^3
[2]; Day 53
  mean tumor volumes: 383.5 mm^3

## C#Cc1cccc(Nc2ncnc3cc(OCCOC)c(OCCOC)cc23)c1 [erlotinib]
[2]; Day 28
  mean tumor volumes: 172.1 mm^3
[2]; Day 32
  mean tumor volumes: 182.1 mm^3
[2]; Day 36
  mean tumor volumes: 216.1 mm^3
[2]; Day 39
  mean tumor volumes: 273.2 mm^3
[2]; Day 43
  mean tumor volumes: 252.8 mm^3
[2]; Day 46
  mean tumor volumes: 245.6 mm^3
[2]; Day 49
  mean tumor volumes: 303.1 mm^3
[2]; Day 53
  mean tumor volumes: 327.4 mm^3

B1: MM-121: anti-ErbB3 monoclonal antibody comprising VH and VL sequences as shown in SEQ ID NOs: 1 and 2 (antibody, listed as Homo sapiens, V domains shown)
VH: EVQLLESGGGLVQPGGSLRLSCAASGFTFSHYVMAWVRQAPGKGLEWVSSISSSGGWTLYADSVKGRFTISRDNSKNTLYLQMNSLRAEDTAVYYCTRGLKMATIFDYWGQGTLVTVSS
VL: QSALTQPASVSGSPGQSITISCTGTSSDVGSYNVVSWYQQHPGKAPKLIIYEVSQRPSGVSNRFSGSKSGNTASLTISGLQTEDEADYYCCSYAGSSIFVIFGGGTKVTVL
[3]; FIG. 1
  effect on tumor growth (in words): inhibited or stopped tumor growth, and in some cases reduced tumor size
[3]; MAXF449 xenograft, NMRI nude mice
  TGI (tumor growth inhibition): approximately 200% and 200%
[4]
  effect on tumor growth (in words): stopped human triple negative breast cancer tumor growth essentially completely
[1]; [5]
  mean tumor volumes: 99.4 mm^3
[1]; [6]
  mean tumor volumes: 115.5 mm^3
[1]; [7]
  mean tumor volumes: 137.5 mm^3
[1]; [8]
  mean tumor volumes: 180.4 mm^3
[1]; [9]
  mean tumor volumes: 187.2 mm^3
[1]; [10]
  mean tumor volumes: 242.7 mm^3
[1]
  effect on tumor growth (in words): inhibited tumor growth
[2]; Day 28
  mean tumor volumes: 178.6 mm^3
[2]; Day 32
  mean tumor volumes: 197.3 mm^3
[2]; Day 36
  mean tumor volumes: 219.1 mm^3
[2]; Day 39
  mean tumor volumes: 257.8 mm^3
[2]; Day 43
  mean tumor volumes: 269.4 mm^3
[2]; Day 46
  mean tumor volumes: 291.4 mm^3
[2]; Day 49
  mean tumor volumes: 351.3 mm^3
[2]; Day 53
  mean tumor volumes: 425.0 mm^3
